Results: PMC10063614, “Turning universal O into rare Bombay type blood” (Nature Communications, 2023)

Target: T1, FucOB (Amuc_1120), α-1,2-L-Fucosidase O to Bombay (Akkermansia muciniphila, UniProt B2UR61)
T1 construct: signal peptide (residues 1-23) removed, additional N-terminal 17-residue peptide with His tag; pET29a, E. coli BL21(DE3); monomer in crystal
Experiment: released fucose by L-fucose dehydrogenase/NADPH assay
Format: biochemical
Details: 20 mM Tris-HCl pH 6.8, 37 °C, 30 min; enzyme:substrate 1:100,000

T1 sequence (B2UR61 entry or part of it): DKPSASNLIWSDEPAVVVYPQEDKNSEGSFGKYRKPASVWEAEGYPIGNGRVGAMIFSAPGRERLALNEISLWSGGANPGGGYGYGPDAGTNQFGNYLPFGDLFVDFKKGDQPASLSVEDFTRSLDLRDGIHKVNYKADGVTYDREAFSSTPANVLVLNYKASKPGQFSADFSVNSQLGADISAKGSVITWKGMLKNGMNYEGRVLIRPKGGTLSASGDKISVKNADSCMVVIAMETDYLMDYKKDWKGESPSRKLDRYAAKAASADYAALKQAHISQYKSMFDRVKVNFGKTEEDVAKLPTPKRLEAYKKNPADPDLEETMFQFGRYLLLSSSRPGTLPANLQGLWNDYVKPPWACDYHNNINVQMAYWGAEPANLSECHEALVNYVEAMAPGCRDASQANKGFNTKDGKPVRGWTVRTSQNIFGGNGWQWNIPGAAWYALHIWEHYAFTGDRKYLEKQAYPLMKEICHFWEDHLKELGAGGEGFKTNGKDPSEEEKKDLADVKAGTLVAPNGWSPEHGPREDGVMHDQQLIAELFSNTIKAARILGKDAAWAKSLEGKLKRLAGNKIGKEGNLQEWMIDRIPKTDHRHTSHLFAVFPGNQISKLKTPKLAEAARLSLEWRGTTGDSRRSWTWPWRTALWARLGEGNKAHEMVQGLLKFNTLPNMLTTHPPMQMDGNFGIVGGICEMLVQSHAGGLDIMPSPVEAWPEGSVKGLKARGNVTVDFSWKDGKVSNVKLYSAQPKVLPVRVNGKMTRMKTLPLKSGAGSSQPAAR

Row | SMILES | released fucose by L-fucose dehydrogenase/NADPH assay
1 | C[C@@H]1O[C@@H](O[C@H]2[C@H](O[C@H]3[C@H](O)[C@@H](O)C(O)O[C@@H]3CO)O[C@H](CO)[C@H](O)[C@@H]2O)[C@@H](O)[C@H](O)[C@@H]1O (some centres unmarked) [2’-fucosyllactose] | FucOB hydrolyzes all three types of H antigen structures to obtain the afucosylated Bombay phenotype
2 | CC(=O)N[C@H]1C(O)O[C@H](CO)[C@@H](O[C@@H]2O[C@H](CO)[C@H](O)[C@H](O)[C@H]2O[C@@H]2O[C@@H](C)[C@@H](O)[C@@H](O)[C@@H]2O)[C@@H]1O (some centres unmarked) [blood group H antigen triaose type II] | FucOB hydrolyzes all three types of H antigen structures to obtain the afucosylated Bombay phenotype
